{"source": "paper PMC11579512", "about": "“Deoxybouvardin-glucoside induces apoptosis in non-small cell lung cancer cells by targeting EGFR/MET and AKT signaling pathway” (EXCLI Journal, 2024)", "format_in_all_cases": "cell-based, human", "key": {"cyclin D1": {"system": "cyclin D1", "assay": "Immunoblot cyclin D1 in HCC827 and HCC827GR cells", "details": "for cyclinD1 protein ratio: relative to DBG 0 nM = 1.00", "method": "(§1) HaCaT cells were grown in DMEM, whereas HCC827 and HCC827GR cells were grown in RPMI 1640. All culture media were supplemented with FBS (10 %) and P/S (1 %), and the cells were grown at 37 °C in 5 % CO2.\n(§2) Cells were lysed in RIPA buffer, and protein concentration was determined using a Bio-Rad DC Protein Assay kit (Bio-Rad, Hercules, CA, USA). Protein samples from the cell lysates were resolved by sodium dodecyl sulfate-polyacrylamide gel electrophoresis and then transferred onto polyvinylidene fluoride membranes. The membranes were blocked with 3 % or 5 % skim milk and then incubated at 4 °C overnight with the indicated primary antibodies, followed by the corresponding horseradish peroxidase-conjugated secondary antibodies at RT for 2 h. Protein bands were visualized using western blotting luminol reagent solution and ImageQuant LAS 500 (GE Healthcare, Uppsala, Sweden). The density of the bands was quantified using ImageJ software (NIH, Bethesda, MD, USA)."}, "CDK2": {"system": "CDK2", "assay": "Immunoblot CDK2 in HCC827 and HCC827GR cells", "details": "for CDK2 protein ratio: relative to DBG 0 nM = 1.00", "method": "as §1, §2"}, "p27": {"system": "p27", "assay": "Immunoblot p27 in HCC827 and HCC827GR cells", "method": "as §1, §2"}, "Bim": {"system": "Bim", "assay": "Immunoblot Bim in HCC827 and HCC827GR cells", "details": "for Bim protein Ratio: DBG 0 nM 0.47", "method": "as §1, §2"}, "cytochrome c (cytosol)": {"system": "cytochrome c (cytosol)", "assay": "Immunoblot cytosolic cytochrome c in HCC827 and HCC827GR cells", "method": "as §2\nThe cells were suspended in plasma membrane extraction buffer [250 mM sucrose, 10 mM HEPES (pH 8.0), 10 mM KCl, 1.5 mM MgCl2• 6H2O, 1 mM EGTA, 1 mM EDTA, 0.1 mM PMSF, 0.01 mg/ml aprotinin, and 0.01 mg/ml leupeptin], and 0.1 % digitonin was added for vortexing (1 min). The supernatant was collected as the cytosolic fraction. The pellet was resuspended in plasma membrane extraction buffer containing 0.5 % Triton X-100. The lysates were centrifuged at 13,000 rpm for 30 min to separate the mitochondrial fraction."}, "HCC827 cells": {"system": "HCC827 cells", "assay": "Annexin V/7-AAD apoptosis, HCC827", "details": "DBG 3 nM, 48 h; background 4.78 %", "method": "as §1\nApoptosis was measured using a Muse™ Annexin V & Dead Cell Kit (MCH100105, Merck Millipore). The fluorescent signal was analyzed with a Muse™ Cell Analyzer."}}}
{"smiles": "COc1ccc(C[C@H]2C(=O)N[C@@H](C)C(=O)N(C)[C@H]3Cc4ccc(cc4)Oc4cc(ccc4O[C@@H]4O[C@H](CO)[C@@H](O)[C@H](O)[C@H]4O)C[C@@H](C(=O)N[C@H](C)C(=O)N[C@@H](C)C(=O)N2C)N(C)C3=O)cc1", "note": "[DBG, deoxybouvardin glucoside]", "values": [{"measurement": "level of cyclin D1", "setting": "cyclin D1; DBG 3, 6, 12 nM, 48 h", "value": "significantly decreased"}, {"measurement": "cyclinD1 protein/actin", "setting": "cyclin D1; HCC827, DBG 3 nM, DBG 0 nM 0.51", "value": 0.23}, {"measurement": "cyclinD1 protein ratio", "setting": "cyclin D1; HCC827, DBG 3 nM", "value": 0.46}, {"measurement": "cyclinD1 protein/actin", "setting": "cyclin D1; HCC827, DBG 6 nM, DBG 0 nM 0.51", "value": 0.14}, {"measurement": "cyclinD1 protein ratio", "setting": "cyclin D1; HCC827, DBG 6 nM", "value": 0.27}, {"measurement": "cyclinD1 protein/actin", "setting": "cyclin D1; HCC827, DBG 12 nM, DBG 0 nM 0.51", "value": 0.09}, {"measurement": "cyclinD1 protein ratio", "setting": "cyclin D1; HCC827, DBG 12 nM", "value": 0.17}, {"measurement": "cyclinD1 protein/actin", "setting": "cyclin D1; HCC827GR, DBG 3 nM, DBG 0 nM 0.73", "value": 0.37}, {"measurement": "cyclinD1 protein ratio", "setting": "cyclin D1; HCC827GR, DBG 3 nM", "value": 0.51}, {"measurement": "cyclinD1 protein/actin", "setting": "cyclin D1; HCC827GR, DBG 6 nM, DBG 0 nM 0.73", "value": 0.33}, {"measurement": "cyclinD1 protein ratio", "setting": "cyclin D1; HCC827GR, DBG 6 nM", "value": 0.45}, {"measurement": "cyclinD1 protein/actin", "setting": "cyclin D1; HCC827GR, DBG 12 nM, DBG 0 nM 0.73", "value": 0.41}, {"measurement": "cyclinD1 protein ratio", "setting": "cyclin D1; HCC827GR, DBG 12 nM", "value": 0.57}, {"measurement": "level of CDKs (CDK2)", "setting": "CDK2; DBG 3, 6, 12 nM, 48 h", "value": "significantly decreased"}, {"measurement": "CDK2 protein/actin", "setting": "CDK2; HCC827, DBG 3 nM, DBG 0 nM 0.56", "value": 0.43}, {"measurement": "CDK2 protein ratio", "setting": "CDK2; HCC827, DBG 3 nM", "value": 0.77}, {"measurement": "CDK2 protein/actin", "setting": "CDK2; HCC827, DBG 6 nM, DBG 0 nM 0.56", "value": 0.20}, {"measurement": "CDK2 protein ratio", "setting": "CDK2; HCC827, DBG 6 nM", "value": 0.36}, {"measurement": "CDK2 protein/actin", "setting": "CDK2; HCC827, DBG 12 nM, DBG 0 nM 0.56", "value": 0.17}, {"measurement": "CDK2 protein ratio", "setting": "CDK2; HCC827, DBG 12 nM", "value": 0.30}, {"measurement": "CDK2 protein/actin", "setting": "CDK2; HCC827GR, DBG 3 nM, DBG 0 nM 0.58", "value": 0.44}, {"measurement": "CDK2 protein ratio", "setting": "CDK2; HCC827GR, DBG 3 nM", "value": 0.76}, {"measurement": "CDK2 protein/actin", "setting": "CDK2; HCC827GR, DBG 6 nM, DBG 0 nM 0.58", "value": 0.36}, {"measurement": "CDK2 protein ratio", "setting": "CDK2; HCC827GR, DBG 6 nM", "value": 0.62}, {"measurement": "CDK2 protein/actin", "setting": "CDK2; HCC827GR, DBG 12 nM, DBG 0 nM 0.58", "value": 0.25}, {"measurement": "CDK2 protein ratio", "setting": "CDK2; HCC827GR, DBG 12 nM", "value": 0.44}, {"measurement": "level of p27", "setting": "p27; DBG, 48 h", "value": "increasing p27"}, {"measurement": "p27 protein/actin", "setting": "p27; HCC827, DBG 3 nM, DBG 0 nM 0.14", "value": 0.14}, {"measurement": "p27 protein ratio", "setting": "p27; HCC827, DBG 3 nM, relative to DBG 12 nM = 1.00, DBG 0 nM 0.34", "value": 0.33}, {"measurement": "p27 protein/actin", "setting": "p27; HCC827, DBG 6 nM, DBG 0 nM 0.14", "value": 0.40}, {"measurement": "p27 protein ratio", "setting": "p27; HCC827, DBG 6 nM, relative to DBG 12 nM = 1.00, DBG 0 nM 0.34", "value": 0.96}, {"measurement": "p27 protein ratio", "setting": "p27; HCC827, DBG 12 nM (set to 1.00), DBG 0 nM 0.34", "value": 1.00}, {"measurement": "p27 protein/actin", "setting": "p27; HCC827, DBG 12 nM, DBG 0 nM 0.14", "value": 0.42}, {"measurement": "p27 protein/actin", "setting": "p27; HCC827GR, DBG 3 nM, DBG 0 nM 0.06", "value": 0.09}, {"measurement": "p27 protein ratio", "setting": "p27; HCC827GR, DBG 3 nM, relative to DBG 12 nM = 1.00, DBG 0 nM 0.08", "value": 0.11}, {"measurement": "p27 protein/actin", "setting": "p27; HCC827GR, DBG 6 nM, DBG 0 nM 0.06", "value": 0.69}, {"measurement": "p27 protein ratio", "setting": "p27; HCC827GR, DBG 6 nM, relative to DBG 12 nM = 1.00, DBG 0 nM 0.08", "value": 0.90}, {"measurement": "p27 protein ratio", "setting": "p27; HCC827GR, DBG 12 nM (set to 1.00), DBG 0 nM 0.08", "value": 1.00}, {"measurement": "p27 protein/actin", "setting": "p27; HCC827GR, DBG 12 nM, DBG 0 nM 0.06", "value": 0.77}, {"measurement": "Bim protein/actin", "setting": "Bim; HCC827, DBG 3 nM, DBG 0 nM 0.53", "value": 0.53}, {"measurement": "Bim protein Ratio", "setting": "Bim; HCC827, DBG 3 nM, relative to DBG 12 nM = 1.00", "value": 0.48}, {"measurement": "Bim protein/actin", "setting": "Bim; HCC827, DBG 6 nM, DBG 0 nM 0.53", "value": 0.73}, {"measurement": "Bim protein Ratio", "setting": "Bim; HCC827, DBG 6 nM, relative to DBG 12 nM = 1.00", "value": 0.65}, {"measurement": "Bim protein Ratio", "setting": "Bim; HCC827, DBG 12 nM (reference of the ratio, 1.00)", "value": 1.00}, {"measurement": "Bim protein/actin", "setting": "Bim; HCC827, DBG 12 nM, DBG 0 nM 0.53", "value": 1.12}, {"measurement": "Bim protein/actin", "setting": "Bim; HCC827GR, DBG 3 nM, DBG 0 nM 0.15", "value": 0.23}, {"measurement": "level of Bim", "setting": "Bim; NSCLC cells, DBG", "value": "increased"}, {"measurement": "cyto c (cytosol) cyto c/β-tubulin/actin (A)", "setting": "cytochrome c (cytosol); HCC827, DBG 3 nM, DBG 0 nM 12.22", "value": 16.55}, {"measurement": "cyto c (cytosol) protein Ratio", "setting": "cytochrome c (cytosol); HCC827, DBG 3 nM, relative to DBG 12 nM = 1.00, DBG 0 nM 0.18", "value": 0.25}, {"measurement": "cyto c (cytosol) cyto c/β-tubulin/actin (A)", "setting": "cytochrome c (cytosol); HCC827, DBG 6 nM, DBG 0 nM 12.22", "value": 47.59}, {"measurement": "cyto c (cytosol) protein Ratio", "setting": "cytochrome c (cytosol); HCC827, DBG 6 nM, relative to DBG 12 nM = 1.00, DBG 0 nM 0.18", "value": 0.72}, {"measurement": "cyto c (cytosol) protein Ratio", "setting": "cytochrome c (cytosol); HCC827, DBG 12 nM (reference of the ratio, 1.00), DBG 0 nM 0.18", "value": 1.00}, {"measurement": "cyto c (cytosol) cyto c/β-tubulin/actin (A)", "setting": "cytochrome c (cytosol); HCC827, DBG 12 nM, DBG 0 nM 12.22", "value": 66.24}, {"measurement": "cyto c (cytosol) cyto c/β-tubulin/actin (A)", "setting": "cytochrome c (cytosol); HCC827GR, DBG 3 nM, DBG 0 nM 5.99", "value": 33.57}, {"measurement": "cyto c (cytosol) protein Ratio", "setting": "cytochrome c (cytosol); HCC827GR, DBG 3 nM, relative to DBG 12 nM = 1.00, DBG 0 nM 0.07", "value": 0.41}, {"measurement": "cyto c (cytosol) cyto c/β-tubulin/actin (A)", "setting": "cytochrome c (cytosol); HCC827GR, DBG 6 nM, DBG 0 nM 5.99", "value": 49.49}, {"measurement": "cyto c (cytosol) protein Ratio", "setting": "cytochrome c (cytosol); HCC827GR, DBG 6 nM, relative to DBG 12 nM = 1.00, DBG 0 nM 0.07", "value": 0.60}, {"measurement": "cyto c (cytosol) protein Ratio", "setting": "cytochrome c (cytosol); HCC827GR, DBG 12 nM (reference of the ratio, 1.00), DBG 0 nM 0.07", "value": 1.00}, {"measurement": "cyto c (cytosol) cyto c/β-tubulin/actin (A)", "setting": "cytochrome c (cytosol); HCC827GR, DBG 12 nM, DBG 0 nM 5.99", "value": 82.76}, {"measurement": "cytochrome c release", "setting": "cytochrome c (cytosol); NSCLC cells, DBG, cytosolic and mitochondrial fractions", "value": "released from the mitochondria"}, {"measurement": "apoptotic cells (annexin V+)", "setting": "HCC827 cells", "value": 9.60, "unit": "%"}]}
